The record followed here is ChEMBL document CHEMBL1201862, “PubChem BioAssay data set” (2004).

Each structure is given as a SMILES string.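 Where inhibition never reached the appropriate level, the endpoint shown equals the highest concentration tested. Otherwise, values were interpolated linearly from a five-concentration, 48-hour dose response in 96-well plates. Here, GI50 denotes the concentration required for 50% inhibition of growth.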 Activity calls are given as the source filed them. Rule as the data show it: active = GI50 up to about 1.1 µM and inactive = higher. A value given as a limit tells only on which side of the number the result lay.

By GI50 is commonly meant the concentration that inhibits growth by half.

What all share (test): DTP human tumour cell line panel, 48 h
Assay [1] relates to 786-0.
Assay [2] relates to BT-549.
Assay [3] relates to COLO 205.
The test system of assay [4] is EKVX.
Assay [5] has as its system HCC 2998.
Assay [6] concerns HOP-92.
The test system of assay [7] is HT-29.
Assay [8] relates to KM12.
For assay [9], the system named is LOX IMVI.
Assay [10] concerns M14.
The subject of assay [11] is MOLT-4.
The subject of assay [12] is NCI-H226.
Assay [13] deals with NCI/ADR-RES.
Assay [14] relates to OVCAR-8.
The test system of assay [15] is SF-268.
Assay [16] concerns SK-MEL-28.
In assay [17] the test system is SK-MEL-2.
The subject of assay [18] is T47D.
Assay [19] has as its system U-251.

Take `CCOC1(OCC)C2C=CC1C(COS(=O)(=O)c1ccc(C)cc1)C2COS(=O)(=O)c1ccc(C)cc1` (stereo not given): the GI50 is 33.3 µM (inactive) in assay [1]; 29.3 µM (inactive) in [2]; 24.1 µM (inactive) in assay [3]; 22.4 µM (inactive) in [4]; 38.3 µM (inactive) in assay [5]; 12.8 µM (inactive) in assay [6]. The GI50 is 25.6 µM (inactive) in assay [7]; 31.1 µM (inactive) in assay [8]; 24.9 µM (inactive) in [9]; 26.8 µM (inactive) in [10]; 11.9 µM (inactive) in [11]; 24.3 µM (inactive) in assay [12]. Besides, the GI50 is 32 µM (inactive) in assay [13]; 40.9 µM (inactive) in assay [14]; 19.6 µM (inactive) in assay [15]; 84.9 µM (inactive) in assay [16]; 28.7 µM (inactive) in assay [17]; 14.2 µM (inactive) in [18]. Besides, in [19], the GI50 was 29.9 µM (inactive).
With `OC1[C@H](O)CN(OCc2ccccc2)C[C@@H]1O` (stereo not given in full), the GI50 in assay [1], in [2], in assay [3], in assay [4], in assay [5] and in assay [6] was > 100 µM (inactive) throughout. The GI50 in assay [7], in assay [8], in assay [9], in assay [10], in assay [11] and in assay [12] was > 100 µM (inactive) throughout. Moreover, the GI50 in assay [13], in assay [14], in [15], in [16], in [17] and in assay [18] was > 100 µM (inactive) each time. Also, the GI50 in assay [19] was > 100 µM (inactive).
As to `CC1OC(OCC2OC(Oc3ccc(C4CC(=O)c5c(O)cc(O)cc5O4)cc3O)C(O)C(O)C2O)C(O)C(O)C1O` (stereo not given), the GI50 in assay [1], in assay [2], in [3], in assay [4], in [5] and in [6] was > 100 µM (inactive) in each case. Also, the GI50 in assay [7], in [8], in [9], in [10], in assay [11] and in assay [12] was > 100 µM (inactive) each time. Moreover, the GI50 in assay [13], in assay [14], in assay [15], in [16], in assay [17] and in assay [18] was > 100 µM (inactive) in each case. In addition, the GI50 in assay [19] was > 100 µM (inactive).
Regarding `COc1cc(C2c3cc4c(cc3OC(O)C2C)OCO4)cc(OC)c1O` (stereo not given), the GI50 was 8.89 µM (inactive) in assay [1]; 7.26 µM (inactive) in assay [2]; 18.2 µM (inactive) in assay [3]; 19.2 µM (inactive) in [4]; 10.9 µM (inactive) in assay [5]; 15.9 µM (inactive) in assay [6]. Moreover, the GI50 in [7] was 4.7 µM (inactive); in assay [8], 4.76 µM (inactive); in assay [9], 8.67 µM (inactive); in [10], 6.9 µM (inactive); in assay [11] it was 4.45 µM (inactive); in [12], 17 µM (inactive). In addition, the GI50 in assay [13] is 3.49 µM (inactive); in assay [14], 16.6 µM (inactive); in assay [15], 15.8 µM (inactive); in assay [16], 28.7 µM (inactive); in assay [17] it was 10.3 µM (inactive); in assay [18], 7.64 µM (inactive). In addition, the GI50 in [19] is 7.16 µM (inactive).
As for `CCCCCCCCCCCNC=O`, the GI50 is > 100 µM (inactive) in assay [1]; 21.8 µM (inactive) in assay [2]; 49.3 µM (inactive) in assay [3]; 52.8 µM (inactive) in assay [4]; 24.4 µM (inactive) in assay [5]; 54.3 µM (inactive) in [6]. The GI50 in assay [7] is 37.3 µM (inactive); in assay [8] it was 45.3 µM (inactive); in [9] it was 51.9 µM (inactive); in [10] it was 63 µM (inactive); in assay [11] it was 22.6 µM (inactive); in [12], 94.6 µM (inactive). The GI50 in [13] is 30.6 µM (inactive); in [14] it was 58.1 µM (inactive); in assay [15], 49.1 µM (inactive); in assay [16], 68.5 µM (inactive); in [17] it was 24.8 µM (inactive); in assay [18], 39.2 µM (inactive). Further, the GI50 in [19] is 25.9 µM (inactive).
As for `CN(C)c1ccc(C(=NN)c2ccc(N(C)C)cc2)cc1`, the GI50 in [1] is 4.8 µM (inactive); in [2] it was 1.77 µM (inactive); in assay [3], 0.344 µM (active); in assay [4], 4.74 µM (inactive); in assay [5], 0.551 µM (active); in assay [6], 14.5 µM (inactive). Moreover, the GI50 in [7] is 0.443 µM (active); in assay [8] it was 0.358 µM (active); in assay [9], 0.966 µM (active); in assay [10] it was 0.504 µM (active); in [11], 0.361 µM (active); in assay [12], 3.52 µM (inactive). Further, the GI50 in assay [13] was 0.179 µM (active); in [14], 2.52 µM (inactive); in assay [15], 8.91 µM (inactive); in assay [16], > 66.1 µM (inactive); in assay [17] it was 0.121 µM (active); in [18] it was 1.66 µM (inactive). Also, in [19], the GI50 was 0.486 µM (active).
On to `Cc1ccc2c(c1)C(=O)/C(=C\c1ccccc1)CCS2(=O)=O`, for which the GI50 in assay [1] was 11.2 µM (inactive); in assay [2] it was 6.68 µM (inactive); in assay [3] it was 17.4 µM (inactive); in assay [4], 22.1 µM (inactive); in assay [5], 12.2 µM (inactive); in [6] it was 12.9 µM (inactive). Further, the GI50 in [7] is 9.06 µM (inactive); in assay [8], 10.5 µM (inactive); in assay [9], 10.7 µM (inactive); in assay [10], 19.8 µM (inactive); in assay [11], 4.54 µM (inactive); in assay [12], 15.7 µM (inactive). The GI50 is 7.23 µM (inactive) in [13]; 11.6 µM (inactive) in [14]; 15.1 µM (inactive) in assay [15]; 18.5 µM (inactive) in assay [16]; 18.6 µM (inactive) in [17]; 11.7 µM (inactive) in assay [18]. Further, the GI50 in assay [19] is 4.69 µM (inactive).
For `O=C(NN1CCCCC1)c1cc2cc(CCl)ccc2oc1=O`, the GI50 in assay [1] is 16.5 µM (inactive); in assay [2] it was 19.3 µM (inactive); in assay [3], 17.9 µM (inactive); in [4], 14.2 µM (inactive); in [5], 13.9 µM (inactive); in assay [6], 10.4 µM (inactive). Besides, the GI50 in [7] is 14.9 µM (inactive); in [8], 22.1 µM (inactive); in assay [9], 18.5 µM (inactive); in assay [10], 18.8 µM (inactive); in [11] it was 22.2 µM (inactive); in assay [12], 20.6 µM (inactive). Moreover, the GI50 is 23.1 µM (inactive) in [13]; 22.1 µM (inactive) in assay [14]; 16.4 µM (inactive) in assay [15]; 29.3 µM (inactive) in assay [16]; 11.9 µM (inactive) in assay [17]; 20.9 µM (inactive) in [18]. The GI50 in assay [19] is 16.9 µM (inactive).
Turning to `COC(=O)C1=C(O)C(C(=O)OC)[C@@]2(O)[C@@H](C(=O)OC)C(c3ccc(OC(=O)/C=C/c4ccccc4)cc3)C[C@@H]1[C@@H]2C(=O)OC` (stereo not given in full), the GI50 in [1] is 10 µM (inactive); in [2] it was 8.22 µM (inactive); in assay [3] it was 10.1 µM (inactive); in assay [4], 12.3 µM (inactive); in assay [5], 4.89 µM (inactive); in assay [6], 29.4 µM (inactive). The GI50 in assay [7] was 3.66 µM (inactive); in assay [8], 5.37 µM (inactive); in [9], 2.31 µM (inactive); in assay [10] it was 6.84 µM (inactive); in assay [11], 2.61 µM (inactive); in [12], 22.6 µM (inactive). Moreover, the GI50 in [13] was 8.41 µM (inactive); in assay [14] it was 8.69 µM (inactive); in assay [15] it was 9.79 µM (inactive); in [16] it was 20 µM (inactive); in assay [17], 4.32 µM (inactive); in assay [18], 8.49 µM (inactive). Also, in assay [19], the GI50 is 6.15 µM (inactive).
Consider `O=[N+]([O-])c1cc2oc(COc3ccccc3)nc2cc1Cl`, for which the GI50 in assay [1] is 33.1 µM (inactive); in [2], 20.8 µM (inactive); in assay [3], 20.6 µM (inactive); in assay [4], 21.9 µM (inactive); in [5] it was 20 µM (inactive); in [6], 22.5 µM (inactive). Also, the GI50 was 32.5 µM (inactive) in assay [7]; 20.9 µM (inactive) in assay [8]; 16.7 µM (inactive) in assay [9]; 19.5 µM (inactive) in [10]; 22.2 µM (inactive) in assay [11]; 17 µM (inactive) in [12]. Further, the GI50 in [13] is 21.4 µM (inactive); in assay [14], 35.2 µM (inactive); in [15] it was 47.4 µM (inactive); in [16], 32.6 µM (inactive); in assay [17] it was 22.1 µM (inactive); in assay [18] it was 18.4 µM (inactive). Moreover, the GI50 in assay [19] was 22.8 µM (inactive).
